Values after ≈ are worked out from the molar mass of the structure shown. Read-outs that look alike come from different tables or passages of the source.
Columns and labels:
[1] = biological target: soluble, sperm-specific adenylate cyclase (sAC) (Homo sapiens, UniProt Q96PN6); assay: sAC-Assay (enzyme test, HTRF cAMP detection); type: biochemical
Text: In a suitable buffer system, the soluble, sperm-specific adenylate cyclase catalyzes the reaction of adenosine triphosphate (ATP) to cyclic adenosine monophosphate (cAMP) and pyrophosphate. Free cAMP that is generated in this way is then used in a competitive detection process, in which the binding of a europium kryptate (Eu[K])-labeled anti-cAMP antibody (anti cAMP-Eu[K]-AK) to a cAMP-molecule-labeled, modified allophycocyanine-1 molecule (cAMP-XL665) is prevented. In the absence of exogenic cAMP, after excitation at 335 nm, it results in a fluorescence resonance energy transfer (FRET) between the anti cAMP-Eu[K]-AK (FRET-donor) and the cAMP-XL665 molecule (FRET-acceptor). This process is quantified at different times (time-resolved) based on the emission of FRET-acceptor XL665 (665 nm and 620 nm). A signal drop (measured as a wave ratio; calculation formula: [(E665 nm/E620 nm)×10000]) can be attributed to the presence of cAMP and thus to the activity of sAC.
First, 1.5 μl of the test substance (in 30% DMSO), only 30% DMSO in the solvent controls, is introduced per recess in a 384-hole test plate (polystyrene; 384, NV). Then, 10 μl of a dilute sAC enzyme solution is recovered (enzyme stock solution in 300 mmol of NaCl, 10% glycerol; pH 7.6; intermediate and final enzyme dilution a) 1:10 and b) 1:2000 in each case in: 1.0 mmol of MnCl2; 0.2% BSA; 50 mmol of tris, pH 7.5 in H2O). The enzyme reaction is started by adding 5 μl of the ATP-substrate solution (200 μmol of ATP in H2O) and is completed after incubation (25 minutes at room temperature) by the addition of 5 μl of stop solution (200 μmol of EDTA in PBS).
Then, 8 μl of detection solution 1 is introduced into a recess of the 384-hole measuring plate (measuring plate: polystyrene; 384, SV—black; detection solution 1:50 μl of cAMP-XL665; 950 μl of reconstitution buffer; 2200 [[…] of PBS; cAMP-XL665: production by the addition of 5 ml of H2O to the freeze-dried product as specified by Cis Bio Kit: #62AMPPEC instructions; storage: aliquoted at −80° C.). Then, 3 μl from the 91.5 μl is added to the corresponding recess of the test plate. Finally, the addition of 8 μl of detection solution 2 (detection solution 2: 50 μl of anti cAMP-Eu[K]-AK; 950 μl of reconstitution buffer; 2200 μl of PBS; anti cAMP-Eu[K]-AK: production as specified by Cis Bio Kit: #62AMPPEC instructions; storage: aliquoted at −80° C.) is carried out.
After an additional incubation of 90 minutes at room temperature, the HTRF result is measured either on the Packard Discovery or with the RubiStar HTRF measuring device (Delay: 50 μs; Integration time: 400 μs).

[2] = Solubility; type: physicochemical
[3] = Biological Data table, read-out: Solubility
[4] = comparison with known compounds in the enzyme test

soluble, sperm-specific adenylate cyclase (sAC), sequence (Q96PN6 whole entry): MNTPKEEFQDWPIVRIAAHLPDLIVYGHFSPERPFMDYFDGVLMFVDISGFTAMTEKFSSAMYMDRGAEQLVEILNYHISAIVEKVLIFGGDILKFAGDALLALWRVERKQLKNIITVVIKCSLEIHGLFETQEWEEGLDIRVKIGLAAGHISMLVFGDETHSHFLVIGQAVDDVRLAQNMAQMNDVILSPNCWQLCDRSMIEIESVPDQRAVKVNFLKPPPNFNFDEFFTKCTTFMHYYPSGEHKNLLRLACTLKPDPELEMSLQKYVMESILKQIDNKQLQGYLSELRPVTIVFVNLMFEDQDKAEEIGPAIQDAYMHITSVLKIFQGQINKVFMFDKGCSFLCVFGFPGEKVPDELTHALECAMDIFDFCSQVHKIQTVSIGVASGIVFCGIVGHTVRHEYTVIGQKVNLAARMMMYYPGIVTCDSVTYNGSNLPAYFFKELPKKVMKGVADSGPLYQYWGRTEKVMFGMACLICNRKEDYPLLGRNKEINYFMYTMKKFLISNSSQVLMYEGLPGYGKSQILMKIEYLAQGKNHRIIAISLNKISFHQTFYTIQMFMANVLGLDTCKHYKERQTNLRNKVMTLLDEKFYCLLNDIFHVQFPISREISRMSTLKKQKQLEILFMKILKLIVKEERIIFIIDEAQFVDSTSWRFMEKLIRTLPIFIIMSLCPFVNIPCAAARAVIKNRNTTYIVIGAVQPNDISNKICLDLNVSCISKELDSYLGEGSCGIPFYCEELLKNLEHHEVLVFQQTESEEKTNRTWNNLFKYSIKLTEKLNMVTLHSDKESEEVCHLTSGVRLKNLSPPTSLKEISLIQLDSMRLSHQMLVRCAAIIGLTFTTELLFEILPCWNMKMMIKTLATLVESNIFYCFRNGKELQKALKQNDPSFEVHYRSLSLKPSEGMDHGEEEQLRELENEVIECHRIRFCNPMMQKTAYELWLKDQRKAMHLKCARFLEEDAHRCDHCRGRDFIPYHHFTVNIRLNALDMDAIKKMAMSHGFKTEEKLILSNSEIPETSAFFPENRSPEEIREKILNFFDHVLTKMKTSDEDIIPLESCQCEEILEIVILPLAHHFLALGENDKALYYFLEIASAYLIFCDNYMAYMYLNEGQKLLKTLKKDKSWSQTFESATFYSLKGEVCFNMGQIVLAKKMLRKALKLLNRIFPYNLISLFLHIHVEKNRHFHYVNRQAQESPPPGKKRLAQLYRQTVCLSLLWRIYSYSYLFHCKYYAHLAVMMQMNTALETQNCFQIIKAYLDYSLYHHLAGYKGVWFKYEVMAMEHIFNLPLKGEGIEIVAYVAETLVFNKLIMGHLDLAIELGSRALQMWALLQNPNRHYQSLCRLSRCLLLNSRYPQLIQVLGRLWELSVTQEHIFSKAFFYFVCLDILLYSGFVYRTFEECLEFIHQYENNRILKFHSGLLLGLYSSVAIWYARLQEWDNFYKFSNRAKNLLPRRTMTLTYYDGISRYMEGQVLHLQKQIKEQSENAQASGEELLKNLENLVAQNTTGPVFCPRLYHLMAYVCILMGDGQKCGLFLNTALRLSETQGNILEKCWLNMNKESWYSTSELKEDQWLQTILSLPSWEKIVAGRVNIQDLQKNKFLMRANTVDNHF

SMILES	IC50 ([1]; Biological Data table)	solubility [2, 3]	solubility ([2]; comparison table)	IC50 [1, 4]
CC(C)(C)c1ccc(S(=O)(=O)Nc2ccc3[nH]c(C(=O)NC4CCOCC4)c(-c4ccccc4)c3c2)cc1 [Example 40, 5-(4-tert-Butylbenzenesulfonylamino)-3-phenyl-1H-indole-2-carboxylic acid-(tetrahydropyran-4-yl)amide]	86 nM	5 µg/mL (≈ 9.4 µM)	5 µg/mL (≈ 9.4 µM)	86 nM
Cc1ccccc1-c1c(C(=O)NCCN(C)C)[nH]c2ccc(NS(=O)(=O)c3ccc(C(C)(C)C)cc3)cc12 [Example 28, 5-(4-tert-Butylbenzenesulfonylamino)-3-(2-methylphenyl)-1H-indole-2-carboxylic acid-(2-dimethylaminoethyl)amide]	2700 nM	5 µg/mL (≈ 9.39 µM)		
CC(C)(C)c1ccc(S(=O)(=O)Nc2ccc3[nH]c(C(=O)Nc4ccncc4)c(-c4ccccc4)c3c2)cc1 [Example 21, 5-(4-tert-Butylbenzenesulfonylamino)-3-phenyl-1H-indole-2-carboxylic acid-pyrindin-4-ylamide]	3400 nM	0.1 µg/mL (≈ 0.191 µM)		
C[C@]12CC[C@@H]3c4cc(O)c(O)cc4CC[C@H]3[C@@H]1CC[C@@H]2O [2-OH-Estradiol, reference compound]				11000 nM
CC(C)(C)c1ccc(S(=O)(=O)Nc2ccc3[nH]c(C(=O)NC4CCCCC4)c(-c4ccccc4)c3c2)cc1 [Example 3, 5-(4-tert-Butylbenzenesulfonylamino)-3-phenyl-1H-indole-2-carboxylic acid-cyclohexylamide]	2000 nM	1 µg/mL (≈ 1.89 µM)		
CN(C)CCNC(=O)c1[nH]c2ccc(NS(=O)(=O)c3ccc(C(C)(C)C)cc3)cc2c1-c1ccccc1Cl [Example 24, 5-(4-tert-Butylbenzenesulfonylamino)-3-(2-chlorophenyl)-1H-indole-2-carboxylic acid-(2-dimethylaminoethyl)amide]	1600 nM	8 µg/mL (≈ 14.5 µM)		
CCCNC(=O)c1[nH]c2ccc(NS(=O)(=O)c3ccc(C(C)(C)C)cc3)cc2c1-c1ccccc1 [Example 9, 5-(4-tert-Butylbenzenesulfonylamino)-3-phenyl-1H-indole-2-carboxylic acid propylamide]	5300 nM	1.5 µg/mL (≈ 3.06 µM)		
CN(C)CCNC(=O)c1[nH]c2ccc(NS(=O)(=O)c3ccc(C(C)(C)C)cc3)cc2c1-c1ccc(Cl)cc1 [Example 26, 5-(4-tert-Butylbenzenesulfonylamino)-3-(4-chlorophenyl)-1H-indole-2-carboxylic acid-(2-dimethylaminoethyl)amide]	9900 nM	3 µg/mL (≈ 5.42 µM)		
CN(C)CCNC(=O)c1[nH]c2ccc(NS(=O)(=O)c3ccc(C(C)(C)C)cc3)cc2c1-c1cccnc1 [Example 32, 5-(4-tert-Butylbenzenesulfonylamino)-3-pyridin-3-yl-1H-indole-2-carboxylic acid-(2-dimethylaminoethyl)amide]	1300 nM	55 µg/mL (≈ 106 µM)		
CN1CCN(NC(=O)c2[nH]c3ccc(NS(=O)(=O)c4ccc(C(C)(C)C)cc4)cc3c2-c2ccccc2)CC1 [Example 20, 5-(4-tert-Butylbenzenesulfonylamino)-3-phenyl-1H-indole-2-carboxylic acid-(4-methylpiperazin-1-yl)amide]	2600 nM			
C[C@]12CC[C@@H]3c4ccc(O)c(O)c4CC[C@H]3[C@@H]1CC[C@@H]2O [4-OH-Estradiol, reference compound]				13000 nM
CC(C)(C)c1ccc(S(=O)(=O)Nc2ccc3[nH]c(C(=O)Nc4cccnc4)c(-c4ccccc4)c3c2)cc1 [Example 2, 5-(4-tert-Butylbenzenesulfonylamino)-3-phenyl-1H-indole-2-carboxylic acid-pyridin-3-ylamide]		1 µg/mL (≈ 1.91 µM)		
CN(C)CCNC(=O)c1[nH]c2ccc(NS(=O)(=O)c3ccc(C(C)(C)C)cc3)cc2c1-c1cccc(Cl)c1 [Example 25, 5-(4-tert-Butylbenzenesulfonylamino)-3-(3-chlorophenyl)-1H-indole-2-carboxylic acid-(2-dimethylaminoethyl)amide]	630 nM	5 µg/mL (≈ 9.04 µM)	5 µg/mL (≈ 9.04 µM)	630 nM

Now from value to compound, other results behind:

IC50 ([1]; Biological Data table)	solubility [2, 3]	solubility ([2]; comparison table)	SMILES	IC50 [1, 4]
150 nM	4 µg/mL (≈ 7.13 µM)		CC(C)(C)c1ccc(S(=O)(=O)Nc2ccc3[nH]c(C(=O)NCCN4CCOCC4)c(-c4ccccc4)c3c2)cc1 [Example 19, 5-(4-tert-Butylbenzenesulfonylamino)-3-phenyl-1H-indole-2-carboxylic acid-(2-morpholin-4-ylethyl)amide]	
	2.1 µg/mL (≈ 4.06 µM)		CCCNC(=O)c1[nH]c2ccc(NS(=O)(=O)c3ccc(OC(F)(F)F)cc3)cc2c1-c1ccccc1 [Example 10, 5-(4-(Trifluoromethoxy)benzenesulfonylamino)-3-phenyl-1H-indole-2-carboxylic acid propylamide]	
3400 nM	1 µg/mL (≈ 2.05 µM)		CC(C)(C)c1ccc(S(=O)(=O)Nc2ccc3[nH]c(C(=O)NC4CC4)c(-c4ccccc4)c3c2)cc1 [Example 1, 5-(4-tert-Butylbenzenesulfonylamino)-3-phenyl-1H-indole-2-carboxylic acid-cyclopropylamide]	
1200 nM	7 µg/mL (≈ 12.8 µM)		COc1ccc(-c2c(C(=O)NCCN(C)C)[nH]c3ccc(NS(=O)(=O)c4ccc(C(C)(C)C)cc4)cc23)cc1 [Example 31, 5-(4-tert-Butylbenzenesulfonylamino)-3-(4-methoxyphenyl)-1H-indole-2-carboxylic acid-(2-dimethylaminoethyl)amide]	
	0.1 µg/mL (≈ 0.193 µM)	0.1 µg/mL (≈ 0.193 µM)	CN(C)CCNC(=O)c1[nH]c2ccc(NS(=O)(=O)c3ccc(C(C)(C)C)cc3)cc2c1-c1ccccc1 [Example 6, 5-(4-tert-Butylbenzenesulfonylamino)-3-phenyl-1H-indole-2-carboxylic acid-(2-dimethylaminoethyl)amide]	
2000 nM	7 µg/mL (≈ 13.1 µM)		Cc1ccc(-c2c(C(=O)NCCN(C)C)[nH]c3ccc(NS(=O)(=O)c4ccc(C(C)(C)C)cc4)cc23)cc1 [Example 29, 5-(4-tert-Butylbenzenesulfonylamino)-3-(4-methylphenyl)-1H-indole-2-carboxylic acid-(2-dimethylaminoethyl)amide]	
70 nM	13 µg/mL (≈ 26.4 µM)		CC(C)(C)c1ccc(S(=O)(=O)Nc2ccc3[nH]c(C(=O)NCCO)c(-c4ccccc4)c3c2)cc1 [Example 37, 5-(4-tert-Butylbenzenesulfonylamino)-3-phenyl-1H-indole-2-carboxylic acid-(2-hydroxyethyl)amide]	
